From publication PMC12040169 (PLOS Biology, 2025)

assay: in vitro; conditions: human, hela cells, % viability

SMILES	viability at 28.5 h, 10 µM
CC(=O)N[C@H](CC(N)=O)C(=O)N1CCC2(C/C=C/C[C@@H]3COCC[C@@H]3NC(=O)[C@@H](CC(C)C)NC2=O)CC1 [CBK292207]	106%
CC(=O)Nc1ccc(OC(=O)c2ccc(Br)o2)cc1 [CBK293917]	112%
O=[N+]([O-])c1ccc(/C=N/c2cccc(-c3nc4ccccc4s3)c2)cc1 [CBK293918]	91.4%
O=C1CCCCCC1C(Nc1ccc2ccccc2c1)c1cccnc1 (stereo not drawn) [CBK293919]	86.4%
CC(C)COC(=O)CCNc1n[nH]c(=O)[nH]c1=O [CBK293920]	86.2%
O=C(Nc1ccccc1-c1nc2ccccc2[nH]1)c1ccc2c(c1)OCCO2 [CBK293924]	104%
COc1ccc(Nc2cc(-n3nc(C)cc3-c3ccccc3)ncn2)cc1 [CBK293925]	104%
CCC(=O)NC(c1ccc(OC)c(OC)c1)c1ccc2cccnc2c1O (stereo not drawn) [CBK293926]	78%
Fc1ccc(CSc2nnnn2-c2ccc3c(c2)OCO3)cc1 [CBK293927]	85.2%
O=[N+]([O-])c1cc(Nc2ncnc3ccccc23)cc(Oc2ccccc2)c1 [CBK293928]	90.3%
Cc1ccc(NC2CC(C)N(C(=O)c3cccc([N+](=O)[O-])c3)c3ccc(C)cc32)cc1 (stereo not drawn) [CBK293929]	86.5%
COc1cccc2cc(C(=O)N3CCN(CCO)CC3)c(=O)oc12 [CBK293932]	89.5%
COc1ccc(C2C=C(c3ccc(OC)c(OC)c3)Nc3ncnn32)c(OC)c1 (stereo not drawn) [CBK293934]	93.3%
COc1ccc(OCc2nc3ccccc3n2C(C)c2ccccc2)cc1 (stereo not drawn) [CBK293941]	116%
Cc1ccc(C(NC(=O)CC(C)C)c2ccc3cccnc3c2O)cc1 (stereo not drawn) [CBK293943]	89.3%
CCCC(=O)NC(c1ccc(OC)cc1)c1cc(Cl)c2cccnc2c1O (stereo not drawn) [CBK293944]	87.4%
COc1ccc(-n2c3c(cc(C(=O)Nc4ccccc4Br)c2=O)C(=O)CCC3)cc1 [CBK293945]	95.7%

SMILES	viability at 28.5 h, 10 µM
CC(C)CNc1nc2c(c(=O)n(Cc3ccccc3)c(=O)n2C)n1Cc1ccccc1 [CBK293946]	81.7%
Cc1ccc(S(=O)(=O)N2CCN(C(c3ccccc3)c3ccccc3)CC2)cc1[N+](=O)[O-] [CBK293949]	103%
O=S(=O)(/N=C(/c1ccc(Cl)cc1)N1CCOCC1)c1ccccc1 [CBK293950]	93.5%
CN(C)CCCNC(=O)c1cc2c(n(-c3ccc(Cl)c(Cl)c3)c1=O)CC(C)(C)CC2=O [CBK293952]	87.4%
Cc1ccc(-c2cc(C(F)(F)F)n3ncc(C(=O)NCc4c(C)nn(C)c4C)c3n2)cc1 [CBK293956]	106%
CC(C)Oc1ccc(-c2cc(C(=O)NCc3ccncc3)c3ccccc3n2)cc1 [CBK293957]	106%
Cc1cc(OC(C)C(=O)N(Cc2cccs2)C2CCS(=O)(=O)C2)cc(C)c1Cl (stereo not drawn) [CBK293962]	84.3%
Cc1ccc2c(c1)N(CCO)/C(=C/c1sc3ccccc3[n+]1CCCS(=O)(=O)[O-])S2 [CBK293965]	93.5%
COc1cccc(C2CC(c3cccc(Cl)c3)n3nc(N)nc3N2)c1 (stereo not drawn) [CBK293966]	85.1%
COc1ccc(-n2nnnc2SCC(=O)c2ccc(O)c(O)c2)cc1 [CBK293969]	90.3%
Cc1ccc(Cn2nnc3c(O)nc(C4CCN(C(=O)CC(C)(C)C)CC4)nc32)cc1 [CBK293970]	91.2%
CCSC1=C(C#N)C(=O)NC(c2ccccc2O)S1 (stereo not drawn) [CBK293971]	109%
N#CC1=C(SCc2ccccc2)SC(c2ccc(O)c(O)c2)NC1=O (stereo not drawn) [CBK293972]	105%
Cc1coc(C)c1C(=O)CC1(O)C(=O)N(CCc2ccccc2)c2ccccc21 (stereo not drawn) [CBK293975]	84.8%
O=c1[nH]c2ccc(Oc3ccc4[nH]c(=O)c(=O)[nH]c4c3)cc2[nH]c1=O [CBK293978]	101%
Cc1nnc(SCC2=NN(c3nc4ccccc4[nH]3)C(=O)C2)s1 [CBK293979]	108%
